In patent publication US20130095505A1, “DETECTION OF LIPID OXIDISING ABZYMES IN SAMPLES” (priority 2005, published 2013):
Entries after “also recorded” stand apart in the source; their conditions may differ. Where two headings read alike, the source gives them in different places.

Experiments:
anti-Chlamydia abzymes [1] = format: biochemical, human
Description: (§1) For chemical inactivation, a diluent solution was divided into two portions. In one portion, an abzyme inhibitor was added.
(§2) The serum sample was split in two aliquots and one aliquot was diluted by solution containing the abzyme inhibitor, the second aliquot was diluted by the control solution. The aliquots were then tested in the same fashion.
ELISA assays were performed using Medac materials and reagents, which were used in accordance with the manufacturers instructions.
Briefly, serum samples from patients were treated as described above. 50 μl of sample diluent was pipetted into microtitre well Al as blank, and 50 μl of the negative control, Positive Control and the diluted patients' samples were pipetted into other microtitre wells. The microplate wells were incubated for 60 min (±5 min) at 37° C. (±1° C.) in a humid chamber and then washed three times with 200 μl wash buffer per well. 50 μl of Conjugate was then added to each well and the microplate wells incubated again for 60 min (±5 min) at 37° C. (±1° C.) in a humid chamber and then washed. 50 μl of TME-Substrate, was added to each well and the microplate wells incubated for 30 min (±2 min) at 37° C. (±1° C.) in a humid chamber. The reaction was stopped by adding 100 μl of Stop Solution, to each well.
Photometric reading was performed at 450 nm (ref. 620-650 nm) within 15 min after adding the Stop Solution.
To calculate the results, the OD value of the blank (well Al) was subtracted from all other OD values. […] Cut-off=mean OD value of the Negative Control+0.380. Grey zone=Cut-off±10%
If there was a difference between 10 and 15% (or an increase in one titer in MIF) of the signal between treated and non-treated samples the conclusion was that the activity of the abzymes was unclear, or in the “grey” zone.

anti-Chlamydia abzymes [2] = format: biochemical, human; remark: listed apart in the source
Description: as §1, §2
Lipid peroxidation was assessed as a level of MDA concentration, which was measured by spectrophotometric methods [Draper, H. H. et al Free Radio. Biol. Med. (1993) 15, 353]. Briefly, the level of abzymes in a sample was determined as follows: Samples of sera were diluted 1:1 by 0.05M acetate buffer pH 4.0 to make the final pH of these samples between 5.6-5.8. 994 μl of the diluted serum was mixed with 10 μl of the commercial live ovine Chlamydia vaccine (Intervet). Samples were incubated overnight (12-16 hours) at 37° C. 250 μl of 40% trichloroacetic acid and 250 μl of 1 mM 2-thiobarbituric acid was added to each sample. All samples were placed in a water bath and boiled for 30 minutes. Samples were cooled down and centrifuged at 3,000 g for 10 minutes. The supernatants were collected and their absorption measured at λ525 nm to determine the concentration of malondialdehydes (MDA), which are products of lipid peroxidation.

[3] = serum diluted with inhibitor solution vs control solution
[4] = serum with live ovine Chlamydia vaccine, pH 5.6-5.8, overnight 37° C.
[5] = summary in text, tested by ELISA and the lipid oxidation assay

Molecule | Inhibition of abzymes ability to cause: Damage of Chlamydia pneumoniae antigen, in ELISA (anti-Chlamydia abzymes [1]) | Inhibition of abzymes ability to cause: Serum lipid peroxidation, in MDA assay (anti-Chlamydia abzymes [2]; pH 5.6) | Inhibition of abzymes ability to cause: Damage of Chlamydia pneumoniae antigen, in ELISA (anti-Chlamydia abzymes [1]; [3]) | Inhibition of abzymes ability to cause: Serum lipid peroxidation, in MDA assay (anti-Chlamydia abzymes [2]; [4]) | other results
Cc1c(O)cc2c(c1C)O[C@](C)(CCC[C@H](C)CCC[C@H](C)CCCC(C)C)CC2 [(+) y-Tocopherol] | Negative | Negative | – | – | –
Cc1c(C)c2c(c(C)c1O)CC[C@@](C)(CCC[C@H](C)CCC[C@H](C)CCCC(C)C)O2 [(+) α-Tocopherol] | – | – | Negative | Negative | –
CC(=O)Oc1ccccc1C(=O)O [Acetyl salicylic acid] | – | – | Positive | Positive | Inhibition of abzyme activity (statement in text) (anti-Chlamydia abzymes [1]; tested by ELISA and the lipid oxidation assay): inhibit abzyme activity; also recorded: abzyme inhibitors
O=C1O[C@H]([C@@H](O)CO)C(O)=C1O [Ascorbic acid] | – | – | Positive | Positive | Inhibition of abzyme activity (statement in text) (anti-Chlamydia abzymes [1]; [5]): inhibit abzyme activity; Inhibition of abzyme activity (statement in text) (anti-Chlamydia abzymes [1]; summary in text, tested by ELISA and the lipid oxidation assay, listed as ascorbic acid): abzyme inhibitors
O=C(O)c1ccccc1 [Benzoic acid] | Negative | Negative | – | – | –
OC[C@@H](O)[C@@H](O)[C@H](O)[C@H](O)CO [D-Mannitol] | – | – | Negative | Negative | –
C[S+](C)[O-] [DMSO] | – | – | Positive | Positive | Inhibition of abzyme activity (statement in text) (anti-Chlamydia abzymes [1]; [5]): inhibit abzyme activity; also recorded: abzyme inhibitors; Inhibition of abzyme activity (statement in text) (anti-Chlamydia abzymes [1]; tested by ELISA and the lipid oxidation assay, listed as DMS): abzyme inhibitors
O=C(O)CN(CCN(CC(=O)O)CC(=O)O)CC(=O)O [EDTA] | Positive | Positive | – | – | Inhibition of abzyme activity (statement in text) (anti-Chlamydia abzymes [1]): inhibit abzyme activity
O=C(O)CN(CCOCCOCCN(CC(=O)O)CC(=O)O)CC(=O)O [EGTA] | – | – | Positive | – | Inhibition of abzyme activity (statement in text) (anti-Chlamydia abzymes [1]; [5]): inhibit abzyme activity
CC(C)=CCC/C(C)=C/C=C/C(C)=C/C=C/C(C)=C/C=C/C=C(C)/C=C/C=C(C)/C=C/C=C(\C)CCC=C(C)C [Lycopene] | – | – | Negative | Negative | –
CC[C@H]1OC(=O)[C@H](C)C(=O)[C@H](C)[C@@H](O[C@@H]2O[C@H](C)C[C@H](N(C)C)[C@H]2O)[C@](C)(OC)C[C@@H](C)C(=O)[C@H](C)[C@H]2N(CCCCn3cnc(-c4cccnc4)c3)C(=O)O[C@]12C [Telithromycin, Ketek, Telithromycin] | – | – | Positive | Positive | Inhibition of abzyme activity (statement in text) (anti-Chlamydia abzymes [1]; summary in text, tested by ELISA and the lipid oxidation assay, listed as telithromycin): abzyme inhibitors; Inhibition of abzyme activity (statement in text) (anti-Chlamydia abzymes [1]; summary in text, tested by ELISA and the lipid oxidation assay, listed as telithromycin ketek): inhibit abzyme activity; Inhibition of abzyme activity (statement in text) (anti-Chlamydia abzymes [1]; summary in text, tested by ELISA and the lipid oxidation assay, listed as telithromycin-ketek): abzyme inhibitors
CC[C@H]1OC(=O)[C@H](C)[C@@H](O[C@H]2C[C@@](C)(OC)[C@@H](O)[C@H](C)O2)[C@H](C)[C@@H](O[C@@H]2O[C@H](C)C[C@H](N(C)C)[C@H]2O)[C@](C)(O)C[C@@H](C)CN(C)[C@H](C)[C@@H](O)[C@]1(C)O [azithromycin] | – | – | – | – | Inhibition of abzyme activity (statement in text) (anti-Chlamydia abzymes [1]; [5]): abzyme inhibitors
CC1=C(/C=C/C(C)=C/C=C/C(C)=C/C=C/C=C(C)/C=C/C=C(C)/C=C/C2=C(C)CCCC2(C)C)C(C)(C)CCC1 [β-Carotene] | Negative | Negative | – | – | –
(+) Catechin gallate | – | – | Positive | Positive | Inhibition of abzyme activity (statement in text) (anti-Chlamydia abzymes [1]; summary in text, tested by ELISA and the lipid oxidation assay, listed as (+) catechin gallate): abzyme inhibitors; Inhibition of abzyme activity (statement in text) (anti-Chlamydia abzymes [1]; summary in text, tested by ELISA and the lipid oxidation assay, listed as catechin gallate): inhibit abzyme activity; also recorded: abzyme inhibitors
Haemoglobin | Positive | Positive | – | – | Inhibition of abzyme activity (statement in text) (anti-Chlamydia abzymes [1]): inhibit abzyme activity; also recorded: abzyme inhibitors
